Measurements: patent US3983105A, “Penicillins” (Bayer Aktiengesellschaft, priority 1971, dated 1976)

Assays:
Assay type in all cases: cell-based
Escherichia coli = test: MIC, test tube serial dilution, Escherichia coli
Pseudomonas aeruginosa = test: MIC, test tube serial dilution, Pseudomonas aeruginosa
Proteus morganii = test: MIC, test tube serial dilution, Proteus morganii
Klebsiella-Aerobacter = test: MIC, test tube serial dilution, Klebsiella-Aerobacter
Proteus vulgaris = test: MIC, test tube serial dilution, Proteus vulgaris
Staphylococcus aureus = test: MIC, test tube serial dilution, Staphylococcus aureus
Streptococcus faecalis = test: MIC, test tube serial dilution, Streptococcus faecalis
[1] = strain 1756 (BRL 1 756), 24 hours, 37°C

MIC (Escherichia coli; Table 3, strain 14) | MIC (Escherichia coli; Table 3, strain 183/58) | MIC (Escherichia coli; Table 3, strain A 261) | MIC (Escherichia coli; Table 3, strain C 165) | MIC (Pseudomonas aeruginosa; Table 3, strain F 41) | MIC (Pseudomonas aeruginosa; Table 3, strain Walter) | MIC (Proteus morganii; Table 3, strain 932) | MIC (Klebsiella-Aerobacter; Table 3, strain 63) | MIC (Klebsiella-Aerobacter; Table 3, strain K 10) | MIC (Proteus vulgaris; Table 3, strain 1017) | MIC (Staphylococcus aureus; Table 3, strain 133) | MIC (Staphylococcus aureus; Table 3, strain 1756E) | MIC (Streptococcus faecalis; Table 3, ATCC 9790) | Compound | MIC (Escherichia coli; strain 183/58, 24 hours, 37°C) | MIC (Escherichia coli; strain A 261, 24 hours, 37°C) | MIC (Pseudomonas aeruginosa; strain Bonn, 24 hours, 37°C) | MIC (Klebsiella-Aerobacter; strain 63, 24 hours, 37°C) | MIC (Proteus vulgaris; strain 1017, 24 hours, 37°C) | MIC (Staphylococcus aureus; [1]) | MIC (Proteus morganii; unit assumed) | also measured
– | – | – | – | – | – | – | – | – | – | – | – | – | CN(C)C(=O)N1CCN(C(=O)N[C@@H](C(=O)N[C@@H]2C(=O)N3[C@@H]2SC(C)(C)[C@@H]3C(=O)O)c2ccccc2)C1=O [Example 6, Sodium D(-)-α-[(3-dimethylaminocarbonyl-imidazolidin-2-on-1-yl)-carbonylamino]-benzylpenicillin] | 4 U/ml | > 256 U/ml | 32 U/ml | 32 U/ml | 16 U/ml | 64 U/ml | – | MIC (Pseudomonas aeruginosa; strain Walter, 24 hours, 37°C): 32 U/ml; MIC (Proteus morganii; strain 932, 24 hours, 37°C): 64 U/ml; MIC (Klebsiella-Aerobacter; strain K 10, 24 hours, 37°C): 16 U/ml; MIC (Streptococcus faecalis; ATCC 9790, 24 hours, 37°C): 32 U/ml
– | – | – | – | – | – | – | – | – | – | – | – | – | CC1(C)S[C@@H]2[C@H](NC(=O)[C@H](NC(=O)N3CCN(C(=O)N4CCCCC4)C3=O)c3ccccc3)C(=O)N2[C@H]1C(=O)O [Example 9, Sodium D(-)-α-[(3-piperdyl-N-carbonyl-imidazolidin-2-on-1-yl)-carbonylamino]-benzylpenicillin] | 4 U/ml | > 256 U/ml | 64 U/ml | – | – | > 256 U/ml | 32 mg/L | MIC (Pseudomonas aeruginosa; in µg/mL (unit assumed)): 32; MIC (Klebsiella-Aerobacter; in µg/mL (unit assumed)): 8; MIC (Proteus vulgaris; unit assumed): 32 mg/L; MIC (Streptococcus faecalis; unit assumed): 128 mg/L
– | – | – | – | – | – | – | – | – | – | – | – | – | CC1(C)S[C@@H]2[C@H](NC(=O)[C@H](NC(=O)N3CCN(C=O)C3=O)c3ccccc3)C(=O)N2[C@H]1C(=O)O [Example 20, Sodium D(-)-α-[(3-formyl-imidazolidin-2-on-1-yl)-carbonylamino]-benzylpenicillin] | 64 U/ml | > 256 U/ml | – | 64 U/ml | 16 U/ml | 128 U/ml | 8 mg/L | MIC (Pseudomonas aeruginosa; in µg/mL (unit assumed)): 8; MIC (Pseudomonas aeruginosa; strain Walter, 24 hours, 37°C): 16 U/ml; MIC (Klebsiella-Aerobacter; in µg/mL (unit assumed)): 32; MIC (Streptococcus faecalis; unit assumed): 32 mg/L
– | – | – | – | – | – | – | – | – | – | – | – | – | CCOC(=O)NS(=O)(=O)N1CCN(C(=O)N[C@@H](C(=O)N[C@@H]2C(=O)N3[C@@H]2SC(C)(C)[C@@H]3C(=O)O)c2ccccc2)C1=O [Example 22, Sodium D(-)-α-{[3-(ethoxy-carbonyl-amino-sulphonyl)imidazolidin-2-on-1-yl]-carbonylamino}-benzylpenicillin] | 8 U/ml | > 256 U/ml | 16 U/ml | 64 U/ml | 16 U/ml | 128 U/ml | 128 mg/L | MIC (Pseudomonas aeruginosa; in µg/mL (unit assumed)): 32; MIC (Klebsiella-Aerobacter; in µg/mL (unit assumed)): 32; MIC (Streptococcus faecalis; unit assumed): 32 mg/L
– | – | – | – | – | – | – | – | – | – | – | – | – | CCS(=O)(=O)N1CCN(C(=O)N[C@@H](C(=O)N[C@@H]2C(=O)N3[C@@H]2SC(C)(C)[C@@H]3C(=O)O)c2ccccc2)C1=O [Example 24, Sodium D(-)-α-[(3-ethanesulphonyl-imidazolidin-2-on-1-yl)-carbonylamino]-benzylpenicillin] | < 1 U/ml | 512 U/ml | – | – | – | 32 U/ml | 2 mg/L | MIC (Pseudomonas aeruginosa; in µg/mL (unit assumed)): 32; MIC (Klebsiella-Aerobacter; in µg/mL (unit assumed)): 8; MIC (Proteus vulgaris; unit assumed): 2 mg/L; MIC (Streptococcus faecalis; ATCC 9790, 24 hours, 37°C): 16 U/ml
– | – | – | – | – | – | – | – | – | – | – | – | – | CN(C(=O)N[C@@H](C(=O)N[C@@H]1C(=O)N2[C@@H]1SC(C)(C)[C@@H]2C(=O)O)c1ccccc1)C(=O)N1CCCS1(=O)=O [Example 29, Sodium D(-)-α-{3-[N-(1,1-dioxo-isothiazolidin-2-yl)-carbonyl]-3-methyl}-ureido-benzylpenicillin] | 32 U/ml | > 256 U/ml | 16 U/ml | 64 U/ml | 64 U/ml | 256 U/ml | 128 mg/L | MIC (Escherichia coli; strain C 165, 24 hours, 37°C): 16 U/ml; MIC (Pseudomonas aeruginosa; strain Walter, 24 hours, 37°C): 16 U/ml; MIC (Klebsiella-Aerobacter; strain K 10, 24 hours, 37°C): 64 U/ml; MIC (Streptococcus faecalis; ATCC 9790, 24 hours, 37°C): 16 U/ml
– | – | – | – | – | – | – | – | – | – | – | – | – | CC1(C)S[C@@H]2[C@H](NC(=O)[C@H](NC(=O)NC(=O)NS(C)(=O)=O)c3ccccc3)C(=O)N2[C@H]1C(=O)O [Example 31, Sodium D(-)-α-(5 -mesyl-biureido)-benzylpenicillin] | 128 U/ml | > 256 U/ml | 256 U/ml | > 256 U/ml | > 256 U/ml | 64 U/ml | – | MIC (Pseudomonas aeruginosa; strain Walter, 24 hours, 37°C): 256 U/ml; MIC (Proteus morganii; strain 932, 24 hours, 37°C): 64 U/ml; MIC (Klebsiella-Aerobacter; strain K 10, 24 hours, 37°C): > 256 U/ml; MIC (Streptococcus faecalis; unit assumed): 32 mg/L
< 1 U/ml | 4 U/ml | 256 U/ml | 4 U/ml | 128 U/ml | 64 U/ml | 8 U/ml | 128 U/ml | 32 U/ml | 8 U/ml | < 1 U/ml | 64 U/ml | 64 U/ml | CC1(C)S[C@@H]2[C@H](NC(=O)C(NC(=O)N3CCN(S(C)(=O)=O)C3=O)c3ccc(Cl)cc3)C(=O)N2[C@H]1C(=O)O (stereo partly drawn) [Penicillin No. 2 (Table 3), Sodium D,L-α-[(3-methylsulphonyl-imidazolidin-2-on-1-yl)-carbonylamino]-4-chlorobenzylpenicillin] | – | – | – | – | – | – | – | –
256 U/ml | 256 U/ml | ≥ 256 U/ml | ≥ 256 U/ml | ≥ 256 U/ml | ≥ 256 U/ml | 32 U/ml | ≥ 256 U/ml | ≥ 256 U/ml | 256 U/ml | 4 U/ml | ≥ 256 U/ml | 256 U/ml | CC1(C)S[C@@H]2[C@H](NC(=O)C(NC(=O)N3CCN(S(C)(=O)=O)C3=O)c3c(Cl)cccc3Cl)C(=O)N2[C@H]1C(=O)O (stereo partly drawn) [Penicillin No. 5 (Table 3), Sodium D,L-α-[(3-methylsulphonyl-imidazolidin-2-on-1-yl)-carbonylamino]-2,6-dichloro-benzylpenicillin] | – | – | – | – | – | – | – | –
8 U/ml | 16 U/ml | > 512 U/ml | 32 U/ml | 256 U/ml | 128 U/ml | 64 U/ml | 256 U/ml | 128 U/ml | 32 U/ml | 2 U/ml | 128 U/ml | 128 U/ml | CC(=O)N1CCN(C(=O)N[C@H](C(=O)N[C@@H]2C(=O)N3[C@@H]2SC(C)(C)[C@@H]3C(=O)O)c2ccccc2)C1=O [Penicillin No. 6 (Table 3), Sodium L(+)-α-[(3-acetyl-imidazolidin-2-on-1-yl)-carbonylamino]-benzylpenicillin] | – | – | – | – | – | – | – | –
4 U/ml | 8 U/ml | 512 U/ml | 16 U/ml | 128 U/ml | 64 U/ml | 16 U/ml | 128 U/ml | 32 U/ml | 32 U/ml | < 1 U/ml | 64 U/ml | 64 U/ml | CC(=O)N1CCN(C(=O)NC(C(=O)N[C@@H]2C(=O)N3[C@@H]2SC(C)(C)[C@@H]3C(=O)O)c2ccc(Cl)cc2)C1=O (stereo partly drawn) [Penicillin No. 7 (Table 3), Sodium D,L-α-[(3-acetylimidazolidin-2-on-1-yl)-carbonyl-amino]-4-chlorobenzylpenicillin] | – | – | – | – | – | – | – | –
2 U/ml | 8 U/ml | 512 U/ml | 8 U/ml | 64 U/ml | 64 U/ml | 8 U/ml | 128 U/ml | 32 U/ml | 8 U/ml | 2 U/ml | 64 U/ml | 64 U/ml | CC(=O)N1CCN(C(=O)NC(C(=O)N[C@@H]2C(=O)N3[C@@H]2SC(C)(C)[C@@H]3C(=O)O)c2cccs2)C1=O (some centres unmarked) [Penicillin No. 9 (Table 3)] | – | – | – | – | – | – | – | –

Compound | MIC (Escherichia coli; Table 3, strain 14) | MIC (Escherichia coli; Table 3, strain 183/58) | MIC (Escherichia coli; Table 3, strain A 261) | MIC (Escherichia coli; Table 3, strain C 165) | MIC (Pseudomonas aeruginosa; Table 3, strain F 41) | MIC (Pseudomonas aeruginosa; Table 3, strain Walter) | MIC (Proteus morganii; Table 3, strain 932) | MIC (Klebsiella-Aerobacter; Table 3, strain 63) | MIC (Klebsiella-Aerobacter; Table 3, strain K 10) | MIC (Proteus vulgaris; Table 3, strain 1017) | MIC (Staphylococcus aureus; Table 3, strain 133) | MIC (Staphylococcus aureus; Table 3, strain 1756E) | MIC (Streptococcus faecalis; Table 3, ATCC 9790) | MIC (Escherichia coli; strain 183/58, 24 hours, 37°C) | MIC (Escherichia coli; strain A 261, 24 hours, 37°C) | MIC (Pseudomonas aeruginosa; strain Bonn, 24 hours, 37°C) | MIC (Klebsiella-Aerobacter; strain 63, 24 hours, 37°C) | MIC (Proteus vulgaris; strain 1017, 24 hours, 37°C) | MIC (Staphylococcus aureus; [1]) | MIC (Proteus morganii; unit assumed) | also measured
CC1(C)S[C@@H]2[C@H](NC(=O)C(NC(=O)N3CCN(S(C)(=O)=O)C3=O)c3cccs3)C(=O)N2[C@H]1C(=O)O (stereo partly drawn) [Penicillin No. 3 (Table 3), Sodium D,L-α-[(3-methylsulphonyl-imidazolidin-2-on-1-yl)-carbonylamino]-α-thienyl-(2)-mthylpenicillin] | < 1 U/ml | 4 U/ml | 256 U/ml | 4 U/ml | 64 U/ml | 64 U/ml | 16 U/ml | 256 U/ml | 16 U/ml | 4 U/ml | < 1 U/ml | 128 U/ml | – | – | – | – | – | – | – | – | MIC (Streptococcus faecalis; unit assumed): 32 mg/L
CC(=O)N1CCN(C(=O)NC(C(=O)N[C@@H]2C(=O)N3[C@@H]2SC(C)(C)[C@@H]3C(=O)O)c2ccc(C)cc2)C1=O (stereo partly drawn) [Penicillin No. 8 (Table 3), Sodium D,L-α-[(3-acetyl-imidazolidin-2-on1-yl)-carbonylamino]-4-methyl-benzylpenicillin] | 2 U/ml | 8 U/ml | 512 U/ml | 8 U/ml | 128 U/ml | 64 U/ml | 32 U/ml | 128 U/ml | 32 U/ml | – | – | ~ 64 U/ml | 64 U/ml | – | – | – | – | – | – | – | MIC (Proteus vulgaris; unit assumed): 16 mg/L
